Test results from US6727244B2, “Mammalian metabolites of a tachykinin receptor antagonist” (Merck & Co., Inc., priority 2000, dated 2004).

What was measured:
Format in all cases: in vitro ADME
[1] = metabolism in primary cultures of rat hepatocytes; conditions: after 6 hr
Description: Hepatocytes were harvested from male Sprague-Dawley rat livers or human livers and cultured on a matrigel support and treated with 0.1 μM dexamethasone or 50 μM rifampicin, respectively, for 48 hr prior to the addition of the test compounds. A 2.5 mM stock solution of [^14C]2-(R)-(1-(R)-(3,5-bis(trifluoromethyl)-phenyl)ethoxy)-3-(S)-(4-fluoro)phenyl-4-(3-(5-oxo-1H,4H-1,2,4-triazolo)methylmorpholine, [^14C]M-1 or [^14C]M-2 in DMSO was added to the plates such that the final concentration of test compound was 25 μM and DMSO was 1% (v/v). The cultures were incubated for 4, 6 or 24 hr for rat hepatocytes and 48 hr for human hepatocytes. The incubation mixtures (500 μL) contained 10 μM of test compound, 100 mM phosphate buffer pH 7.4, NADPH-regenerating system, microsomes containing expressed CYP isoforms (CYP1A2, CYP2A6, CYP2B6, CYP2C8, CYP2C9, CYP2C19, CYP2D6, CYP2E1 or CYP3A4) and cytochrome P-450 reductase. The reactions were initiated by adding NADP and proceeded at 37° C. for 15-45 min. […]
Method A was conducted on a Shimadzu HPLC system (Shimadzu Scientific Instruments Inc., Columbia Md.). The parent compounds and their metabolites were monitored directly using a radiometric detector (INUS Systems Inc. Tampa, Fla.) and Ultima-Flow M (Packard Instrument Co., Meridan Conn.) as scintillant at a flow rate of 3 mL/min. […]

[2] = biological target: T1, recombinant human CYP isozymes (Homo sapiens, UniProt P08684); assay: metabolism by microsomes containing recombinant human CYP isozymes; conditions: parent to M-1 (N-dealkylation); M-1 to M-2 (oxidation); M-3 to M-4 (hydroxylation); M-2 to M-5 (conversion)
T1 construct: host or cells: Baculovirus-infected sf21 insect cells (microsomes)
T1 sequence (P08684 2-503 limits assumed): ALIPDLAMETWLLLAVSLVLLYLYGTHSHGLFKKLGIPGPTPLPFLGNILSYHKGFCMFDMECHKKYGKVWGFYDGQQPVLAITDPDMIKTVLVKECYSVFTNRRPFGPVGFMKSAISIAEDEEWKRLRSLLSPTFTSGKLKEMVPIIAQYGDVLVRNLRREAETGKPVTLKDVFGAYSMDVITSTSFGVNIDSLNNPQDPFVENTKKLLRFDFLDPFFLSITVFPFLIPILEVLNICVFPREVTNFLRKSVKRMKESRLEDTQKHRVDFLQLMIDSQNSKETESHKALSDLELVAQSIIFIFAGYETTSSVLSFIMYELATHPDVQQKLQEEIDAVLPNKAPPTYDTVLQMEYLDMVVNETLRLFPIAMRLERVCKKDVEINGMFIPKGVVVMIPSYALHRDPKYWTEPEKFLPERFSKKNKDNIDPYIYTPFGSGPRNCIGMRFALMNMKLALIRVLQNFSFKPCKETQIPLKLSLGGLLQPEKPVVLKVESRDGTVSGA
Description: Hepatocytes were harvested from male Sprague-Dawley rat livers or human livers and cultured on a matrigel support and treated with 0.1 μM dexamethasone or 50 μM rifampicin, respectively, for 48 hr prior to the addition of the test compounds. A 2.5 mM stock solution of [^14C]2-(R)-(1-(R)-(3,5-bis(trifluoromethyl)-phenyl)ethoxy)-3-(S)-(4-fluoro)phenyl-4-(3-(5-oxo-1H,4H-1,2,4-triazolo)methylmorpholine, [^14C]M-1 or [^14C]M-2 in DMSO was added to the plates such that the final concentration of test compound was 25 μM and DMSO was 1% (v/v). The cultures were incubated for 4, 6 or 24 hr for rat hepatocytes and 48 hr for human hepatocytes. The incubation mixtures (500 μL) contained 10 μM of test compound, 100 mM phosphate buffer pH 7.4, NADPH-regenerating system, microsomes containing expressed CYP isoforms (CYP1A2, CYP2A6, CYP2B6, CYP2C8, CYP2C9, CYP2C19, CYP2D6, CYP2E1 or CYP3A4) and cytochrome P-450 reductase. The reactions were initiated by adding NADP and proceeded at 37° C. for 15-45 min. Acetonitrile extracts from microsomal and hepatocyte incubates were dissolved in 50% aqueous methanol and fractionated by HPLC. The separation was accomplished on a Zorbax RX C8 analytical column (5 μm, 4.6×250 mm). The mobile phase consisted of solvent A (10 mM ammonium acetate in water) and solvent B (7.3 mM ammonium acetate in 92.7% acetonitrile and 7.3% methanol. The column was eluted by a linear gradient from 35 to 80% B over 40 min at a flow rate of 1 mL/min. Fractions of major metabolites were subjected to LC-MS/MS analysis. Further purification was done using isocratic conditions prior to NMR analysis.
The incubation mixtures (500 μL) contained 10 or 25 μM of test compounds, 100 mM phosphate buffer pH 7.4, NADPH-regenerating system (5 mM glucose-6-phosphate, 1 mM NADP and 0.7 I.U/mL glucose 6-phosphate dehydrogenase), 0.5 to 2 mg/mL liver microsomal protein prepared from rats and humans or microsomes from Baculovirus-infected sf21 cells containing 20 to 200 pmol expressed CYP isoforms (CYP1A2, CYP2A6, CYP2B6, CYP2C8, CYP2C9, CYP2C19, CYP2D6, CYP2E1 or CYP3A4) and cytochrome P450 reductase. Stock solutions of the substrates in methanol were made such that final concentration of methanol in the reaction mixture was 3%. The reactions were initiated by adding 50 μL of 10 mM NADP and proceeded at 37° C. for 15-45 min. After incubation, the reactions were terminated by the addition of four volumes of acetonitrile. The suspensions were mixed vigorously and centrifuged at 3000×g for 5 min. The supernatants were dried and redissolved in 50% methanol for HPLC analysis using method A described below.

[3] = glucuronidation in liver microsomes from humans; conditions: human liver microsomes, UDPGA, 37° C. for 60 min
Description: All liver microsomal and cytosolic fractions were prepared using the following procedure. Thawed livers were homogenized with 2 volumes of 50 mM Tris-buffer (pH 7.5) containing 1.15% KCl. For microsomal and cytosolic preparations, the homogenate was centrifuged for 20 min at 9,000×g and the resulting supernatant was centrifuged for 60 min at 105,000×g. The resulting cytosolic fractions were re-centrifuged at 105,000×g for 60 min. Fractions of cytosol were aliquoted into small tubes and stored at −70° C. Subsequently, the microsomal pellets were washed with 10 mM EDTA containing 1.15% KCl and were centrifuged at 105,000×g for 60 min. […] Protein concentrations were determined by a modified Lowry assay (Smith et al., 1985). The specific cytochrome P450 content in each microsomal preparation was measured as described by Omura and Sato, J. Biol. Chem. 239, 2370-2378 (1964).
The typical reaction mixture (500 μl) containing 10 mM MgCl2, 2% glycerol, 0.02% lubrol PX, 3 mM UDPGA, 1 mg liver microsomes, 50 mM bis-tris propane buffer (pH 8.5) and ˜10 or 25 μM compound (in 15 μl methanol) was incubated at 37° C. for 30-60 min. After incubation, the reactions were terminated by the addition of four volumes of acetonitrile and processed and analyzed by HPLC as mentioned above.

## C[C@@H](O[C@H]1OCCN[C@H]1c1ccc(F)cc1)c1cc(C(F)(F)F)cc(C(F)(F)F)c1 [Metabolite M-1, (2R,3S)-2-[(1R)-1-[3,5-bis(trifluoromethyl)phenyl]ethoxy]-3-(4-fluorophenyl)morpholine]
[1]
  metabolism in rat hepatocyte cultures: extensively metabolized
[2]
  CYP isozyme primarily responsible for the metabolic step: CYP3A4
[3]
  conversion to the corresponding glucuronide: ~20%
